Legend:
DGK [1] = assay: DGK inhibitor effect on killing activity of human CAR-TIL; format: cell-based; details: preliminary observations
Experimental: In addition, experiments were conducted to mimic potential human trials in which mice with established tumors were injected intravenously with 10^7 wild type T cells or the three types of DGK knockout T cells. […] Preliminary relevant observations in human CAR T cells have been recorded using a commercially available DGK inhibitor (R59022). Human mesothelin-CAR T cells mixed with human mesothelin tumor cells (at a 1:1 ratio) were injected into immunodeficient mice. The tumor growth was slowed, but not prevented by the CAR-T cells. After 2-3 weeks, tumors were harvested and the human CAR-T cells were purified. When these T cells (Tumor infiltrating lymphocytes, or TILs) are allowed to react with fresh tumors, they can kill only 5-10% of the tumor cells showing they are hypofunctional compared to freshly made CAR-T cells which kill 70% of tumor cells (FIG. 15).

DGK [2] = details: freshly isolated human TIL, renal cell cancers; cited from earlier work
DGK [3] = assay: Lysis of EM-meso-luc cells by antigen-exposed human mesoCAR T cells with or without DGK inhibitors; format: cell-based; details: 5 μg/mL inhibitor, 18 hours, after 96 hours exposure to EM-meso
Experimental: Primary human T cells were obtained and mock infected or transduced with lentivirus expressing mesoCAR as previously described (Moon et al., 2011, Clin Cancer Res 17:4719-30). A total of 5×10^6 T cells were subsequently added to 24-well plates that had been seeded with 5×10^5 cells either from the epithelial mesothelioma (EM) human mesothelioma line or a stable derivative cell line, EM-meso, engineered to express high levels of mesothelin, in a 24-well dish. […] Cells were assessed for viability using Trypan blue, and 1×10^5 live T cells were cocultured with 5×10^3 EM-meso-luc cells expressing luciferase in 96-well plates in the presence or absence of the DGK inhibitors DGK1 (R59022) or DGK2 (R59949; Sigma) at 5 μg/mL. After 18 hours, remaining tumor cells were washed and lysed, and luminescence was evaluated. Cell lysate determinations were corroborated with visual estimate of remaining numbers of tumor cells.

Row | SMILES | function (killing activity) of human CAR-TIL (DGK [1]) | TIL function (DGK [2]) | cytotoxicity of mesothelin-exposed mesoCAR T cells (DGK [3])
1 | Cc1nc2sccn2c(=O)c1CCN1CCC(=C(c2ccccc2)c2ccc(F)cc2)CC1 [R59022] | augments function | improve TIL function | reverse the impaired cytotoxicity
2 | O=c1c2ccccc2[nH]c(=S)n1CCN1CCC(=C(c2ccc(F)cc2)c2ccc(F)cc2)CC1 [R59949] | – | – | reverse the impaired cytotoxicity

From US11931380B2, “Inhibition of diacylglycerol kinase to augment adoptive T cell transfer” (THE TRUSTEES OF THE UNIVERSITY OF PENNSYLVANIA, priority 2012, dated 2024)
